Laboratory results from US20260364088A1, “TASL MIMICKING MOLECULES AND APPLICATIONS THEREOF” (CEMM - FORSCHUNGSZENTRUM FÜR MOLEKULARE MEDIZIN GMBH, priority 2022, published 2026).

Experiments:
IRF5 = assay: Microscopy-based IRF5 nuclear translocation assay in CAL-1 cells; settings: human monocytic and pDC cell lines
Description: CAL-1, THP1 or human primary cells were incubated with dTASL1 and other identified compounds (or the corresponding volume of DMSO vehicle) for 24 h or 48 h at the indicated concentration and subsequently stimulated with R848 (5 μg/ml) for the indicated time. Supernatant or cells were recovered for ELISA, SDS-PAGE or microscopy-based analysis.
5×10^5 CAL-1 cells in 500 μl medium (wildtype, drug-treated or gene-deficient as indicated) were seeded on poly-L-lysine hydrobromide (P6282, Sigma-Aldrich)-coated coverslips in 24-well cell culture plates and immediately stimulated with 5 μg/ml R848 (Invivogen) or left unstimulated. Afterwards, medium was removed and cells were fixed with 4% formaldehyde in PBS for 15 minutes at room temperature (RT), followed by blocking and permeabilization with 5% FBS and 0.3% Triton X-100 in PBS for 1 h at RT. […]
Images were acquired on a Zeiss LSM-980 equipped with an AiryScan2 detector and processed in Zeiss ZEN version 3.6. Computational image analysis was performed with CellProfiler version 4.2.4 and data analyzed in R version 4.2.1 facilitating the following packages: ‘tidyverse’, ‘data.table’ and ‘ggpubr’. In brief nuclei and cytoplasmic regions were identified and nuclear to cytoplasmic median intensity ratios were calculated on a single cell level. […]

[1] = test system: TNF production in human peripheral blood mononuclear cells (PBMCs); assay: TNF ELISA, R848-stimulated PBMCs; format: cell-based; settings: bulk PBMCs, dTASL1 10 µM 24 h, R848 (5 μg/ml) 16 h, n=8
Excerpt: (§1) HEK293T cells and THP1 cells were purchased from ATCC, THP1 DUAL/ISRE reporter cell lines from Invivogen. CAL-1 cells were provided by T. Maeda (Nagasaki University). Cell lines—except for CAL-1—were authenticated by short tandem repeat profiling and regularly tested for mycoplasma contamination. Human primary PBMCs were isolated from the blood of anonymous healthy donors as well as SLE patients included in our biobank approved by the ethics committee of the Medical University of Vienna (EK2071/2020 and EK1075/2021). CD14^+ monocytes were purified by magnetic-activated cell sorting (Miltenyi Biotec, #130-050-201) according to the manufacturers protocol. Purity of CD14^+ cells ranged between 80.8% and 94.2% as determined by flow cytometry analysis. […]
(§2) Given that all evidence obtained seems to confirm the mechanistic precision of this chemical agent, any further consideration of assessing the therapeutic potential required evidence for activity in human primary cells relevant for SLE pathophysiology. The effect of dTASL1 in human peripheral blood mononuclear cells (PBMCs) was assessed. […] The impact of dTASL1 on TLR7/8 responses by directly monitoring IRF5 by confocal microscopy in B cells was assessed.

[2] = test system: TNF production in CD14^+ monocytes; assay: TNF ELISA, R848-stimulated purified CD14^+ monocytes; format: cell-based, human; settings: purified CD14^+ cells, dTASL1 10 µM 24 h, R848 (5 μg/ml) 16 h, n=8
Excerpt: as §1, §2

Q: With CCOc1ccc(-c2cc(C(=O)NCCCN3CCCCC3C)c3ccccc3n2)cc1 (stereo not drawn) [dTASL1, 2-(4-ethoxyphenyl)-N-(3-(2-methylpiperidin-1-yl)propyl) quinoline-4-carboxamide] as the compound, how does the “TLR7/8-induced IRF5 activation” value (IRF5) read?
A: specifically impairs TLR7/8-induced IRF5 activation

Q: What about the TNF production [1] of the same compound?
A: potently impaired TNF

Q: What about the TNF production [2] of the same compound?
A: a significant reduction in this proinflammatory cytokine
